Reference: patent US20240360114A1 (SIRONAX LTD., priority 2021, published 2024)

Test system: HT-1080 cells
Assay: HT-1080 cell viability assay (ferroptosis induced by RSL3, Cell Titer-Glo)
Type: cell-based
Conditions: ferroptosis inducer RSL3, 20 hours, ferroptosis inhibitory activity, Table 2
In short: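 Cells seeded overnight, then co-treated with RSL3 and compound (3-fold, 10-point dilution, top 1.1 μM) for 20 hours. Viability by CellTiter-Glo luminescence, normalized to untreated controls; EC50 from sigmoidal non-linear regression.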

SMILES | EC50 (Homo sapiens, HT-1080, 20 h) | further results
NC1CCC(Nc2ccc3c(c2)OCC3)CC1 (centres unmarked) [Compound 166, N1-(2,3-dihydrobenzofuran-6-yl)cyclohexane-1,4-diamine] | 1 to 10 µM | –
CC(C)(C)c1ccc(NC2CCC(NCC(F)(F)F)CC2)cc1 (centres unmarked) [Compound 168A, N-(4-(tert-butyl)phenyl)-N-(2,2,2-trifluoroethyl)cyclohexane-1,4-diamine] | 1 to 10 µM | –
NC1CCC(Nc2ccc(C3CCOCC3)cc2)CC1 (centres unmarked) [Compound 170, 1-N-(4-(tetrahydro-2H-pyran-+-yl)phenyl)cyclohexane-1,4-diamine] | 1 to 10 µM | –
CCCCN(CCCC)CCNc1ccc(C2CCCCC2)cc1 [Compound 173, N1,N1-dibutyl-N2-(4-cyclohexylphenyl)ethane-1,2-diamine] | – | EC50 (Homo sapiens): 0.1 to 1 µM
CC(C)(C)c1ccc(NCCn2ccnc2)cc1 [Compound 175, N-(2-(1H-imidazol-1-yl)ethyl)-4-(tert-butyl)aniline] | 1 to 10 µM | –
CC(C)(C)c1ccc(NCCc2cnc[nH]2)cc1 [Compound 177, N-(2-(1H-imidazol-5-yl)ethyl)-4-(tert-butyl)aniline] | 1 to 10 µM | –
CC(C)(C)c1ccc(NC2CCN(C(N)=O)CC2)cc1 [Compound 178, 4-((4-(tert-butyl)phenyl)amino)piperidine-1-carboxamide] | – | EC50 (Homo sapiens): 1 to 10 µM
CC(C)(C)c1ccc(NCCOCCO)cc1 [Compound 179, 2-(2-((4-(tert-butyl)phenyl)amino)ethoxy) ethan-1-ol] | 1 to 10 µM | –
CC(C)(C)c1ccc(NC2CCN(S(N)(=O)=O)CC2)cc1 [Compound 180, 4-((4-(tert-butyl)phenyl)amino)piperidine-1-sulfonamide] | – | EC50 (Homo sapiens): 0.1 to 1 µM
Cc1nc(N2CC(C)OC(C)(C)C2)ccc1NC1CC2(CC(N)C2)C1 (centres unmarked) [Compound 185, N2-(2-methyl-6-(2,2,6-trimethylmorpholino)pyridin-3-yl)spiro[3.3]heptane-2,6-diamine] | 1 to 10 µM | –
CC1CN(c2ccc(NC3CC4(CC(N)C4)C3)cc2F)CC(C)N1CC(F)(F)F (centres unmarked) [Compound 186, N2-(4-(3,5-dimethyl-4-(2,2,2-trifluoroethyl)piperazin-1-yl)-3-fluorophenyl) spiro-[3.3]heptane-2,6-diamine] | – | EC50: 0.1 to 1 µM
CC(C)(C)c1ccc(NC2CCC(N)CC2)c(C#N)c1 (centres unmarked) [Compound 187, 2-((4-aminocyclohexyl)amino)-5-(tert-butyl)benzonitrile] | 1 to 10 µM | –
CC(C)(C)c1ccc(NC2CCC(N)(C(=O)O)CC2)cc1 (centres unmarked) [Compound 189, 1-amino-4-((4-(tert-butyl)phenyl)amino)cyclohexane-1-carboxylic acid] | 1 to 10 µM | –
NC1CCC(Nc2ccncc2)CC1 (centres unmarked) [Compound 199, N1-(pyridin-4-yl)cyclohexane-1,4-diamine] | 1 to 10 µM | –
CC(C)(C)c1ccc(NCCN2CCCC2)cc1 [Compound 202, 2-(pyrrolidin-1-yl) acetaldehyde--4-(tert-butyl)-N-(2-(pyrrolidin-1-yl)ethyl)aniline-4-(tert-butyl)aniline] | 1 to 10 µM | –
CC(C)(C)c1ccc(NCCN2CCOCC2)cc1 [Compound 206, U4-(tert-butyl)-N-(2-morpholinoethyl)aniline] | 1 to 10 µM | –
CC(C)(C)Nc1ccc(C2CCNCC2)cc1 [Compound 207, N-(tert-butyl)-4-(piperidin-4-yl)aniline] | 1 to 10 µM | –
CCc1ccc(NC2CCC(N)CC2)cn1 (centres unmarked) [Compound 208, N1-(6-ethylpyridin-3-yl)cyclohexane-1,4-diamine] | 1 to 10 µM | –
Cc1cc(C)c(NC2CCC(CN)CC2)c(C)c1 (centres unmarked) [Compound 210, N-[4-(aminomethyl)cyclohexyl]-2,4,6-trimethylaniline] | 1 to 10 µM | –
COCCN(C)CCNc1ccc(C(C)(C)C)cc1 [Compound 211, N1-(4-(tert-butyl)phenyl)-N2-(2-methoxyethyl)-N2-methylethane-1,2-diamine] | 1 to 10 µM | –
CC(C)(C)c1ccc(NC2CCC(N)(C(N)=O)CC2)cc1 (centres unmarked) [Compound 212, 1-amino-4-((4-(tert-butyl)phenyl)amino)cyclohexane-1-carboxamide] | 1 to 10 µM | –
Cc1cc(C)c(NC2CCC(N)CC2)c(C)c1 (centres unmarked) [Compound 219, N1-mesitylcyclohexane-1,4-diamine] | 1 to 10 µM | –
CN1CCN(CC(=O)N2CCC(Nc3ccc(C(C)(C)C)cc3)CC2)CC1=O [Compound 222, 4-(2-{4-[(4-tert-butylphenyl)amino]piperidin-1-yl}-2-oxoethyl)-1-methylpiperazin-2-one] | – | EC50 (Homo sapiens): 1 to 10 µM
NC1CCC(Nc2ccc(CC(F)(F)F)cc2)CC1 (centres unmarked) [Compound 223, N1-(4-(2,2,2-trifluoroethyl)phenyl)cyclohexane-1,4-diamine] | 1 to 10 µM | –

Now from value to compound, other results behind:

EC50 (Homo sapiens, HT-1080, 20 h) | SMILES | further results
1 to 10 µM | NC1CCC(Nc2cccnc2)CC1 (centres unmarked) [Compound 163, N1-(pyridin-3-yl)cyclohexane-1,4-diamine] | –
1 to 10 µM | NC1CCC(Nc2cccc3c2CCO3)CC1 (centres unmarked) [Compound 164, N1-(2,3-dihydrobenzofuran-4-yl)cyclohexane-1,4-diamine] | –
1 to 10 µM | NC1CCC(Nc2ccc(Br)cc2)CC1 (centres unmarked) [Compound 165, N1-(4-bromophenyl)cyclohexane-1,4-diamine] | –
0.1 to 1 µM | CC1(C)CCC(c2ccc(NC3CCC(CN)CC3)cn2)CC1 (centres unmarked) [Compound 167, N-(4-(aminomethyl)cyclohexyl)-6-(4,4-dimethylcyclohexyl)pyridin-3-amine] | –
0.1 to 1 µM | COCCNC1CCC(Nc2ccc(C(C)(C)C)cc2)CC1 (centres unmarked) [Compound 169, 1-N-(4-(tert-butyl)phenyl)-N4-(2-methoxyethyl)cyclohexane-1,4-diamine] | –
0.0001 to 0.1 µM | CC1(C)CCC(c2ccc(NCCCN3CCCC3)cc2)CC1 [Compound 171, 4-(4,4-dimethylcyclohexyl)-N-(3-(pyrrolidin-1-yl)propyl)aniline] | –
0.0001 to 0.1 µM | CCC(C)(C)c1ccc(NC2CCC(C)(N)CC2)cc1 (centres unmarked) [Compound 172, 1-methyl-N4-(4-(tert-pentyl)phenyl)cyclohexane-1,4-diamine] | –
0.0001 to 0.1 µM | CCCOc1ccc(NC2CCC(N)CC2)cc1 (centres unmarked) [Compound 174, N1-(4-propoxyphenyl)cyclohexane-1,4-diamine] | –
0.1 to 1 µM | CC1(C)CCC(c2ccc(NCCN)cc2)CC1 [Compound 176, N1-(4-(4,4-dimethylcyclohexyl)phenyl)ethane-1,2-diamine] | –
0.1 to 1 µM | NC1CCC(Nc2ccc(C3CC3)cc2)CC1 (centres unmarked) [Compound 181, N1-(4-cyclopropylphenyl)cyclohexane-1,4-diamine] | –
0.1 to 1 µM | Cc1cc(C(C)(C)C)ccc1NC1CCC(N)CC1 (centres unmarked) [Compound 184, N1-(4-(tert-butyl)-2-methylphenyl)cyclohexane-1,4-diamine] | –
0.1 to 1 µM | CCCC(CCC)Nc1ccc(C(C)(C)C)cc1 [Compound 188, 4-(tert-butyl)-N-(heptan-4-yl)aniline] | –
0.1 to 1 µM | CC(C)(C)c1ccc(NC2CCC(N)CC2)c(F)c1 (centres unmarked) [Compound 190, N1-(4-(tert-butyl)-2-fluorophenyl)cyclohexane-1,4-diamine] | –
0.1 to 1 µM | CC(C)(C)c1ccc(NC2CCC(C(N)=O)CC2)cc1 (centres unmarked) [Compound 192, 4-((4-(tert-butyl)phenyl)amino)cyclohexane-1-carboxamide] | –
0.1 to 1 µM | CNC1CCC(Nc2ccc(C(C)(C)C)cc2)C1 (centres unmarked) [Compound 194, N1-(4-(tert-butyl)phenyl)-N3-methylcyclopentane-1,3-diamine] | –
0.0001 to 0.1 µM | CN(C)CC1CCC(Nc2ccc(C(C)(C)C)cc2)CC1 (centres unmarked) [Compound 196, 4-(tert-butyl)-N-(4-((dimethylamino)methyl)cyclohexyl)aniline] | –
0.0001 to 0.1 µM | CC(C)(C)c1ccc(N[C@H]2CC[C@H](N)CC2)cc1 [Compound 197, (1r,4r)-N1-(4-(tert-butyl)phenyl)cyclohexane-1,4-diamine] | –
0.1 to 1 µM | CC(C)(C)c1ccc(N[C@H]2CC[C@@H](N)CC2)cc1 [Compound 198, (1s,4s)-N1-(4-(tert-butyl)phenyl)cyclohexane-1,4-diamine] | –
0.1 to 1 µM | CC(C)(C)c1ccc(NC2CCC(N)CC2)cc1Cl (centres unmarked) [Compound 201, N1-(4-(tert-butyl)-3-chlorophenyl)cyclohexane-1,4-diamine] | –
0.1 to 1 µM | CC1(C)CCC(c2ccc(NC(C)(C)CN3CCCC3)cc2)CC1 [Compound 203, 4-(4,4-dimethylcyclohexyl)-N-(2-methyl-1-(pyrrolidin-1-yl)propan-2-yl)aniline] | –
0.1 to 1 µM | CC(C)(C)c1ccc(NC2CCc3nc(N)sc3C2)cc1 (centres unmarked) [Compound 204, 4-N-(4-(tert-butyl)phenyl)-4,5,6,7-tetrahydrobenzo[d]thiazole-2,6-diamine] | –
0.0001 to 0.1 µM | CC1(C)CCC(c2ccc(NCCCN)cc2)CC1 [Compound 209, 1-N-(4-(4,4-dimethylcyclohexyl)phenyl)propane-1,3-diamine] | –
0.0001 to 0.1 µM | C[C@@H](O)[C@H](N)C(=O)NC1CCC(Nc2ccc(C(C)(C)C)cc2)CC1 (stereo partly drawn) [Compound 214, (2S, 3R)-2-amino-N-(4-((4-(tert-butyl)phenyl)amino)cyclohexyl)-3-hydroxybutanamide] | –
0.0001 to 0.1 µM | CC(C)(C)c1ccc(NC2CCC(NC(=O)C3CNCCN3)CC2)cc1 (centres unmarked) [Compound 215, N-(4-((4-(tert-butyl)phenyl)amino)cyclohexyl) piperazine-2-carboxamide] | –
0.0001 to 0.1 µM | Cc1cc(NC2CCC(N)CC2)ccc1C(C)(C)C (centres unmarked) [Compound 217, N1-(4-(tert-butyl)-3-methylphenyl)cyclohexane-1,4-diamine] | –
0.1 to 1 µM | CC(C)(C)c1ccc(NC2CCC(N)CC2)cc1C#N (centres unmarked) [Compound 218, 5-((4-aminocyclohexyl)amino)-2-(tert-butyl)benzonitrile] | –
0.0001 to 0.1 µM | CC(C)(C)c1ccc(-c2ccc(NC3CCC(N)CC3)cc2)cc1 (centres unmarked) [Compound 220, N1-(4′-(tert-butyl)-[1,l′-biphenyl]-4-yl)cyclohexane-1,4-diamine] | –
0.0001 to 0.1 µM | NC1CCC(Nc2ccc3ccccc3c2)CC1 (centres unmarked) [Compound 221, N1-(naphthalen-2-yl)cyclohexane-1,4-diamine] | –
0.1 to 1 µM | CC(C)(C)c1ccc(NCCOCCN)cc1 [Compound 224, N-(2-(2-aminoethoxy)ethyl)-4-(tert-butyl)aniline] | –
